Measured values published in patent US11072624B2, “Synthesis of nucleoside 5′-triphosphates and their derivatives” (priority 2010, dated 2021).

Molecular target: T1, Klenow fragment exo(−), Kf- (Escherichia coli, UniProt P00582, D355A/E357A)
T1 construct: into DNA by Klenow fragment exo(−), Kf-
Assay: Primer extension reaction of chemically synthesized dNTPs into DNA by Klenow polymerase
Format: biochemical
Conditions: single test dNTP plus the three other standard dNTPs (lanes 4, 6, 8, 10); 0.1 mM dNTPs, 37° C., 1 h, 19% PAGE
Method: Primer, P was end labeled using polynucleotide kinase and [γ-^32P] ATP. Polymerization reactions were performed with 3.5 μM primer and 5 μM template and equimolar ratios of all dNTPs (0.1 mM) and incubated with 0.05 […] at 37° C. for 1 h. Reaction was analyzed by 19% polyacrylamide gel electrophoresis. Lane 1: primer, P and all dNTPs but no Kf-; lane 2: P plus template, T and all dNTPs (Epicentre, Inc.) with Kf-; lane 3: P/T and all dNTPs except dATP with Kf-; lane 4: P/T and test dATP, dCTP, dGTP, and TTP with Kf-; lane 5: P/T and all dNTPs except dCTP with Kf-; lane 6: P/T and dATP, test dCTP, dGTP and TTP with Kf-; lane 7: P/T and all dNTPs except dGTP with Kf-; lane 8: P/T and dATP, dCTP, test dGTP and TTP with Kf-; lane 9: P/T and all dNTPs except TTP with Kf-; lane 10: P/T and dATP, dCTP, dGTP and test TTP with Kf-; lane 11: P/T and all test dNTPs with Kf-; lane 12: primer, P.
For the polymerase extension reaction, the primer (SEQ ID NO: 1; P: 5′-d-GCGTAATACGACTCACTATAG-3′) was radiolabeled with [γ-^32P] ATP at the 5′-position and incubated with the template (SEQ ID NO: 2; 3′-d-[…]-5′) to allow examination of a test nucleotide (dATP, dCTP, dGTP or TTP), see FIG. 3. The polymerase reaction was conducted in the presence of the Klenow polymerase (0.05 U/μL). […] More convincingly, in a reaction containing each of the test triphosphates (lane 11), full-length product (SEQ ID NO: 3) similar to the standard polymerization reaction (lane 2) was observed.

T1 sequence (P00582 324-928 D355A/E357A): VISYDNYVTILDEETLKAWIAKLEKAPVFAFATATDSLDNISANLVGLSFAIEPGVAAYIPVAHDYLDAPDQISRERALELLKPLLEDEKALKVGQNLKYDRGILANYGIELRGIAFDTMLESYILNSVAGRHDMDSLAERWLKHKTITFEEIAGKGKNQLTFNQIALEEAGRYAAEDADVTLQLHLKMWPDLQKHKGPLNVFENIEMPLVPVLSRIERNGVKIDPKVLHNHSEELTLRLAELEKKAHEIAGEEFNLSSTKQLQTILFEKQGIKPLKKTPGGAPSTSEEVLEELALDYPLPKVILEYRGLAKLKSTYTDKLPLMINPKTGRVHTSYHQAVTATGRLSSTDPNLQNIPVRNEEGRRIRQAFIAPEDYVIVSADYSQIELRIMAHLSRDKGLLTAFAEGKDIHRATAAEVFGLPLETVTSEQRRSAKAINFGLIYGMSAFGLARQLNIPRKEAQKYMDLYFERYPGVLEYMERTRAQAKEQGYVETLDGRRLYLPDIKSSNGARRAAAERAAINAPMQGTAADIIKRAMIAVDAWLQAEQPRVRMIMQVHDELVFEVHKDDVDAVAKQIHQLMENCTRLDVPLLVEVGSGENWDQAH

Compound	primer extension to the expected full-length (test dNTP as substrate for the Klenow polymerase)
Nc1ccn([C@H]2C[C@H](O)[C@@H](COP(=O)(O)OP(=O)(O)OP(=O)(O)O)O2)c(=O)n1 [dCTP]	efficiently extended the primer
Cc1cn([C@H]2C[C@H](O)[C@@H](COP(=O)(O)OP(=O)(O)OP(=O)(O)O)O2)c(=O)[nH]c1=O [TTP]	efficiently extended the primer
Nc1nc2c(ncn2[C@H]2C[C@H](O)[C@@H](COP(=O)(O)OP(=O)(O)OP(=O)(O)O)O2)c(=O)[nH]1 [dGTP]	efficiently extended the primer
Nc1ncnc2c1ncn2[C@H]1C[C@H](O)[C@@H](COP(=O)(O)OP(=O)(O)OP(=O)(O)O)O1 [dATP]	efficiently extended the primer
